Test results: patent US6498150B2, “Low molecular weight cell, bone marrow and immune stimulants” (priority 1995, dated 2002)
“And” between values parts separate entries of the source, which are not always exact repeats. Identical values can stand only once. Like-named read-outs stand apart in the source and are kept apart here. Marks after values point to notes of the source that are not given here.

How the values were obtained:
CD34+ cells = test: Blood cell stimulation: CD34+ progenitor suspension culture, lineage marker ELISA; assay type: cell-based, human; settings: for neutrophils, Percent difference (relative to control): CD15; for red blood cells, Percent difference (relative to control): glycophorin A
anti-Pn14 antibodies = test system: anti-Pn14 antibodies; design: species or system BALB/c female mice; settings: mouse, in vivo
[1] = test system: delayed type hypersensitivity (DTH); assay type: in vivo, mice
[2] = test system: CHO cells containing a cloned gene for tissue plasminogen activator (tPA); test: Stimulation of tPA production from CHO cells (IMUBIND total tPA ELISA); assay type: cell-based; settings: for Culture Cell Density / Supernatant Concentration (tPA) / Supernatant Concentration relative to control / tPA per cell / tPA per cell relative to control / ELISA Optical Density: 1 pg/ml; for Culture Cell Density: cell numbers per milliliter, trypan-blue, hemacytometer; for Supernatant Concentration (tPA): from standard curve; for ELISA Optical Density: supernatant at end of log phase
[3] = test system: Hybridoma cells (ATCC #CRL-8014, OKT-8); test: Production of monoclonal antibodies from hybridomas (sandwich ELISA); assay type: cell-based; settings: 200 pg/ml
[4] = Study 1: 1 ng/ml compound, 2000 cells per well, 10 days, CD14
[5] = Study 1: 1 ng/ml compound, 2000 cells per well, 10 days
[6] = Study 2: 1 ug/ml, 1700 cells per well

O=C(CCNC(=O)OCc1ccccc1)NCCS(=O)(=O)O [Taurox-SB, N-carboxybenzoxy-β-alanyl-taurine]
monocytes, Percent difference (relative to control) (CD34+ cells; [4]): 15%
neutrophils, Percent difference (relative to control) (CD34+ cells; [5]): 0%
red blood cells, Percent difference (relative to control) (CD34+ cells; [5]): 0%
Mean Change in O.D. from pre-boost, 10 days after boost with UNCONJUGATED polysaccharide (anti-Pn14 antibodies): 139
Mean Change in O.D. from pretest, Day 4 after injection with antigen (anti-Pn14 antibodies): 1.1
Mean Change in O.D. from pretest, Day 14 after injection with antigen (anti-Pn14 antibodies): 697
Mean Change in O.D. from pretest, Day 4 after injection with antigen (anti-Pn14 antibodies; ip): 6.2 and 3.9
Mean Change in O.D. from pretest, Day 14 after injection with antigen (anti-Pn14 antibodies; ip): 705 and 483
moderate responders compared with saline injected group ([1]; 24 hrs): more moderate responders than the saline injected group
Percent of Animals with Major DTH at 24 hrs ([1]; mouse, in vivo): 50* Percent
Percent of Animals with Major DTH at 48 hrs. ([1]; mouse, in vivo): 50%
Percent of Animals with Major DTH at either 24 or 48 hrs. ([1]; mouse, in vivo): 60%
Percent of Animals with Moderate DTH at 24 hrs ([1]; mouse, in vivo): 70%
moderate response rate at 24 hrs ([1]; mouse, in vivo): eight of ten
total treated animals with major immune response at 24 hours ([1]; mouse, in vivo): 14 animals
treated animals with major response at either 24 or 48 hours post challenge ([1]; mouse, in vivo): 21 animals
Percent of Animals with Major DTH at 24 hrs ([1]; mouse, in vivo, iv): 20% and 10%
Percent of Animals with Major DTH at 48 hrs. ([1]; mouse, in vivo, iv): 20% and 10%
Percent of Animals with Moderate DTH at 24 hrs ([1]; mouse, in vivo, iv): 70% and 60% and 50% and 80* Percent and 40%
Culture Cell Density ([2]; listed as #1): 4.0 × 10^5
Culture Cell Density ([2]; listed as #2): 4.8 × 10^5
Culture Cell Density ([2]; listed as #3): 5.2 × 10^5
Supernatant Concentration (tPA) ([2]; listed as #1): 1,492.8 nanograms/ml
Supernatant Concentration (tPA) ([2]; listed as #2): 1,389.4 nanograms/ml
Supernatant Concentration (tPA) ([2]; listed as #3): 2,113.0 nanograms/ml
Supernatant Concentration relative to control ([2]; listed as #1): [3.5 × control]
tPA per cell ([2]; listed as #1): 3.73 Picograrns
tPA per cell relative to control ([2]; listed as #1): [1.9 × control]
Supernatant Concentration relative to control ([2]; listed as #2): [3.3 × control]
tPA per cell ([2]; listed as #2): 2.89 Picograrns
Supernatant Concentration relative to control ([2]; listed as #3): [5.0 × control]
tPA per cell ([2]; listed as #3): 4.06 Picograrns
tPA per cell relative to control ([2]; listed as #3): [2.1 × control]
ELISA Optical Density ([2]; listed as #1): 0.332
ELISA Optical Density ([2]; listed as #2): 0.317
ELISA Optical Density ([2]; listed as #3): 0.422
alteration of per-cell production of tPA ([2]; Table 2): about 2 fold
Increase of 1 gG, μg/ml over 0-control [3]: 316%
Increase of IgG, pg/cell over 0-control [3]: 93%
IgG, pg/cell ([3]; protein-free media): 80.6 pg/cell
1 gG ([3]; protein-free media, Mab in culture aliquots): 50 µg/mL

O=C(CCNC(=O)OCc1ccccc1)NCCOP(=O)(O)O [Taurox-BOP, N-carboxybenzoxy-β-alanyl-ethanolamine phosphate]
monocytes, Percent difference (relative to control) (CD34+ cells; [4]): 18%
neutrophils, Percent difference (relative to control) (CD34+ cells; [5]): 21%
red blood cells, Percent difference (relative to control) (CD34+ cells; [5]): 0%
CD34 cells, Percent difference (relative to control) (CD34+ cells; [6]): 33%
RBC, Percent difference (relative to control) (CD34+ cells; [6]): 55%
monocytes, Percent difference (relative to control) (CD34+ cells; [6]): 9%
Mean Change in O.D. from pretest, Day 4 after injection with antigen (anti-Pn14 antibodies): 0
Mean Change in O.D. from pretest, Day 14 after injection with antigen (anti-Pn14 antibodies): 366
Mean Change in O.D. from pretest, Day 14 after injection with antigen (anti-Pn14 antibodies; ip): 877 and 515

N-carboxybenzoxy-β-alanyl aminoethylphosphonic acid [Taurox-BP]
monocytes, Percent difference (relative to control) (CD34+ cells; [4]): 18%
neutrophils, Percent difference (relative to control) (CD34+ cells; [5]): 14%
red blood cells, Percent difference (relative to control) (CD34+ cells; [5]): 1%
CD34 cells, Percent difference (relative to control) (CD34+ cells; [6]): 0%
RBC, Percent difference (relative to control) (CD34+ cells; [6]): 4%
monocytes, Percent difference (relative to control) (CD34+ cells; [6]): 2%
Mean Change in O.D. from pre-boost, 10 days after boost with UNCONJUGATED polysaccharide (anti-Pn14 antibodies): 187
Mean Change in O.D. from pretest, Day 4 after injection with antigen (anti-Pn14 antibodies): 3.3
Mean Change in O.D. from pretest, Day 14 after injection with antigen (anti-Pn14 antibodies): 924

NCCC(=O)NCCS(=O)(=O)O [Taurox-S, β-alanyl-taurine]
monocytes, Percent difference (relative to control) (CD34+ cells; [4]): 47%
neutrophils, Percent difference (relative to control) (CD34+ cells; [5]): 55%
red blood cells, Percent difference (relative to control) (CD34+ cells; [5]): 50%
Mean Change in O.D. from pre-boost, 10 days after boost with UNCONJUGATED polysaccharide (anti-Pn14 antibodies): 204
Mean Change in O.D. from pretest, Day 4 after injection with antigen (anti-Pn14 antibodies): 2.9
Mean Change in O.D. from pretest, Day 14 after injection with antigen (anti-Pn14 antibodies): 697
Mean Change in O.D. from pretest, Day 14 after injection with antigen (anti-Pn14 antibodies; ip): 681 and 671
